According to patent US20080242726A1 (priority 2004, published 2008):

Key:
total serum testosterone = assay: Effects of Clomids on serum testosterone in male baboons; format: in vivo; details: 1.5 mg/kg for 12 days
Text: (§1) The samples analyzed were sera taken on the day of first treatment before being given test article (day 0), after 12 days of treatment (day 12) and 7 days after the last treatment (end or wash-out).

serum cholesterol = assay: Effects on cholesterol levels in male baboons; format: in vivo; details: 1.5 mg/kg for 12 days
Text: as §1

serum prolactin (PRL) = assay: Effects on serum prolactin (PRL) in male baboons; format: in vivo; details: 1.5 mg/kg for 12 days
Text: as §1

[1] = Text: as §1
total testosterone = assay: Comparison of Androxal to Androgel in hypogonadal men: total testosterone; format: in vivo; details: two weeks
Experimental: (§2) A placebo controlled challenge study was conducted at the Advanced Biological Research, Inc. (ABR) Clinical Research Center in Hackensack, N.J. to compare orally administered Androxal™ (trans-clomiphene) to Androgel® (testosterone) in hypogonadal men. Androgel® (Solvay Pharmaceuticals, Inc.) consists of a cream that administers exogenous testosterone in a transdermal matrix.
(§3) The study enrolled 62 hypogonadal men with testosterone levels less than 300 ng/dl (normal 298-1034 ng/dl) that were randomized into 6 different arms, three doses of Androxal™ (12.5 mg, 25 mg, and 50 mg), placebo, and both high and low doses of Androgel®. Half of the men in each of the Androxal™ and placebo arms were randomized into cohorts that underwent in-clinic sessions on days 1 and 14 to determine pharmacokinetic parameters for Androxal™ as well as cyclical changes in testosterone. The placebo and Androxal™ doses were administered in a double blind fashion. The Androgel® cream was administered in an open label fashion. Half of the Androgel® patients underwent in-clinic sessions similar to the other patients in the study. Following the two week drug exposure patients were followed for an additional seven to ten days to determine the status of their testosterone levels.

[2] = Comparison of Androxal to Androgel in hypogonadal men: side effects; format: in vivo; details: two week exposure, compared with placebo
Experimental: as §2, §3

Compound: CCN(CC)CCOc1ccc(C(=C(Cl)c2ccccc2)c2ccccc2)cc1 [Clomid, clomiphene]
- effect on total serum testosterone (total serum testosterone): more variable total testosterone levels
- trend of serum cholesterol (serum cholesterol): slight increase

Compound: CCN(CC)CCOc1ccc(/C(=C(\Cl)c2ccccc2)c2ccccc2)cc1 [Enclomid, trans-clomiphene]
- effect on total serum testosterone (total serum testosterone): significant increases
- serum prolactin (PRL) during the study (serum prolactin (PRL)): decrease
- trend of serum cholesterol (serum cholesterol): tended to decrease
- effect on platelets ([1]; 12-day treatment): clear effect
- counts of eosinophiles ([1]; male baboons): raising the counts
- mean increase of testosterone from baseline (total testosterone; high dose 50 mg oral): 294 ng/dL
- mean increase of testosterone from baseline (total testosterone; low dose 12.5 mg oral): 169 ng/dL
- mean increase of testosterone from baseline (total testosterone; mid dose 25 mg oral): 247 ng/dL
- side effects [2]: no side effects

Compound: CCN(CC)CCOc1ccc(/C(=C(/Cl)c2ccccc2)c2ccccc2)cc1 [Zuclomid, cis-clomiphene]
- effect on total serum testosterone (total serum testosterone): did not raise total serum testosterone to any extent
- trend of serum cholesterol (serum cholesterol): tended to increase
